Assay results taken from the CheMixHub viscosity set.

Assay: xn = mol fraction of the nth substance listed

Cc1ccc(C)cc1 + COC(=O)OC
298.15 K, 101.3 kPa
Settings	viscosity [mPa·s]
x2 = 0.1097	0.592
x2 = 0.1824	0.591
x2 = 0.2345	0.59
x2 = 0.2757	0.589
x2 = 0.3294	0.586
x2 = 0.3683	0.586
x2 = 0.5137	0.588
x2 = 0.6046	0.588
x2 = 0.7164	0.59
x2 = 0.8442	0.587

CCCCCCCCN + COCCO
308.15 K, 101 kPa
Settings	viscosity [mPa·s]
x2 = 0.1894	1.275
x2 = 0.3445	1.474
x2 = 0.4739	1.614
x2 = 0.5835	1.667
x2 = 0.6777	1.67
x2 = 0.7592	1.609
x2 = 0.8307	1.556
x2 = 0.8937	1.482
x2 = 0.9498	1.379

OCCOCCO + COCCO
viscosity [mPa·s], 101 kPa
Settings	293.15 K	298.15 K	303.15 K
x2 = 0.063	32.91	25.61	18.57
x2 = 0.1046	29.55	23.08	16.7
x2 = 0.1548	25.97	20.37	14.71
x2 = 0.1955	23.41	18.4	13.26
x2 = 0.2599	19.9	15.69	11.28
x2 = 0.3032	17.82	14.1	10.11
x2 = 0.3425	16.13	12.78	9.154
x2 = 0.3978	14.02	11.13	7.954
x2 = 0.4463	12.38	9.856	7.03
x2 = 0.4981	10.82	8.633	6.143
x2 = 0.5488	9.459	7.565	5.383
x2 = 0.5957	8.321	6.686	4.755
x2 = 0.6523	7.085	5.718	4.079
x2 = 0.6987	6.176	5.003	3.59
x2 = 0.7511	5.269	4.232	3.094
x2 = 0.8021	4.393	3.612	2.67
x2 = 0.8546	3.602	2.998	2.276
x2 = 0.8964	3.013	2.551	1.995
x2 = 0.9423	2.414	2.084	1.714

[Cl-].[Cl-].[Cl-].[Cl-].[Ge+4] + COc1ccccc1
viscosity [mPa·s], 101 kPa
Settings	x2 = 0.2185	x2 = 0.3554	x2 = 0.4923	x2 = 0.6922	x2 = 0.8481
293.15 K	0.65	0.688	0.734	0.836	0.963
303.15 K	0.591	0.621	0.654	0.732	0.836
313.15 K	0.535	0.555	0.598	0.654	0.731

O=Cc1ccccc1 + CS(C)=O
viscosity [mPa·s], 101.33 kPa
Settings	x2 = 0.1	x2 = 0.2	x2 = 0.3	x2 = 0.4	x2 = 0.5	x2 = 0.6	x2 = 0.7	x2 = 0.8	x2 = 0.9
298.15 K	1.443	1.51	1.562	1.62	1.679	1.739	1.801	1.864	1.938
308.15 K	1.22	1.266	1.314	1.362	1.411	1.461	1.51	1.56	1.609
318.15 K	1.066	1.101	1.135	1.17	1.207	1.243	1.28	1.317	1.354

OCCOCCO + CS(C)=O
308.15 K, 101 kPa
Settings	viscosity [mPa·s]
x2 = 0.0978	16.69
x2 = 0.1794	15.85
x2 = 0.2569	14.94
x2 = 0.3945	13.49
x2 = 0.4797	12.36
x2 = 0.5804	10.83
x2 = 0.6748	8.995
x2 = 0.7945	6.227
x2 = 0.9146	3.442

[Cl-].[Cl-].[Cl-].[Cl-].[Ge+4] + CSC
293.15 K, 101 kPa
Settings	viscosity [mPa·s]
x2 = 0.203	0.526
x2 = 0.3575	0.483
x2 = 0.4983	0.433
x2 = 0.6857	0.379
x2 = 0.8554	0.328

CCCC[N+](CCCC)(CCCC)CCCC.[Cl-] + CSCC[C@H](N)C(=O)O
Settings	viscosity [mPa·s]
323.15 K, 101 kPa, x1 = 0.9	529

CCCC[N+](CCCC)(CCCC)CCCC.[Cl-] + C[C@@H](O)[C@H](N)C(=O)O
Settings	viscosity [mPa·s]
313.15 K, 101 kPa, x1 = 0.9	633

CC(O)C(C)O (configuration not stated) + C[N+](C)(C)CCO.[Cl-]
viscosity [mPa·s], 101.3 kPa
Settings	303.15 K	308.15 K	313.15 K	318.15 K	323.15 K
x2 = 0.2	71.79	53.5	40.72	31.73	25.22
x2 = 0.25	84.88	63.93	48.73	38.16	30.43

OCCOCCO + C[N+](C)(C)CCO.[Cl-]
viscosity [mPa·s], 101 kPa
Settings	293.15 K	298.15 K	303.15 K	313.15 K	323.15 K
x1 = 0.667	52.49	–	50.39	35.69	25.79
x2 = 0.25	–	55.1	–	–	–

CC(C)CCCC(C)CCCC(C)CCCC(C)C (configuration not stated) + Cc1ccccc1
viscosity [mPa·s], 100 kPa
Settings	298.15 K	313.15 K
x2 = 0.4932	2.255	1.658
x2 = 0.7449	1.263	0.974

Cc1ccc(C)cc1 + Cc1ccccc1
Settings	viscosity [mPa·s]
293.15 K, 101.33 kPa, x2 = 0.1516	0.636
293.15 K, 101.33 kPa, x2 = 0.3137	0.624
293.15 K, 101.33 kPa, x2 = 0.6003	0.6
293.15 K, 101.33 kPa, x2 = 0.8519	0.588
298.15 K, 101 kPa, x1 = 0.1	0.5595
298.15 K, 101 kPa, x1 = 0.2	0.565
298.15 K, 101 kPa, x1 = 0.3	0.5703
298.15 K, 101 kPa, x1 = 0.4	0.5756
298.15 K, 101 kPa, x1 = 0.5	0.5807
298.15 K, 101 kPa, x1 = 0.6	0.5857
298.15 K, 101 kPa, x1 = 0.7	0.5907
298.15 K, 101 kPa, x1 = 0.8	0.5955
298.15 K, 101 kPa, x1 = 0.9	0.6001
303.15 K, 101.33 kPa, x2 = 0.1516	0.56
303.15 K, 101.33 kPa, x2 = 0.3137	0.547
303.15 K, 101.33 kPa, x2 = 0.6003	0.532
303.15 K, 101.33 kPa, x2 = 0.8519	0.526
313.15 K, 101.33 kPa, x2 = 0.1516	0.509
313.15 K, 101.33 kPa, x2 = 0.3137	0.5
313.15 K, 101.33 kPa, x2 = 0.6003	0.491
313.15 K, 101.33 kPa, x2 = 0.8519	0.47
323.15 K, 101.33 kPa, x2 = 0.1516	0.459
323.15 K, 101.33 kPa, x2 = 0.3137	0.45
323.15 K, 101.33 kPa, x2 = 0.6003	0.437
323.15 K, 101.33 kPa, x2 = 0.8519	0.423

O=Cc1ccccc1 + Cc1ccccc1
293.15 K, 100 kPa
Settings	viscosity [mPa·s]
x1 = 0.1053	0.652
x1 = 0.2063	0.721
x1 = 0.2998	0.768
x1 = 0.4022	0.844
x1 = 0.4995	0.92
x1 = 0.6003	1.017
x1 = 0.6939	1.108
x1 = 0.8082	1.256
x1 = 0.9002	1.367
